Measured values published in patent publication US6117841A, “Substituted peptidylamine calcium channel blockers” (Warner-Lambert Company, priority 1999, dated 2000).
pIC50: −log10 of the molar value. Read-outs that look alike come from different tables or passages of the source.

Target: T1, N-type Ca^2+ Channel (Homo sapiens, UniProt Q00975)
T1 construct: host or cells: IMR-32 cells differentiated with dibutyryl cAMP and bromodeoxyuridine
Assay: Measurement of N-type Ca2+ channel blocking potencies in IMR-32 cells using the fluorescent Ca2+ indicator Indo-1
Assay type: cell-based
Outline: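 IMR-32 cells were differentiated 7–13 days (1 mM dibutyryl cAMP, 2.5 µM BrdU) and Indo-1-loaded. They were preincubated 10 min at 30 °C with compound and 5 µM nitrendipine in HEPES/Tris pH 7.4 HBSS with 0.5% BSA, then KCl/CaCl2-depolarized. The peak-minus-basal 400/490 nm emission ratio gave IC50 by four-parameter logistic fit.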

[1] = IMR-32 cells, K+ depolarization, 5 μM nitrendipine to block L-type channels, read-out: IMR 32 IC50
[2] = IMR-32 cells, 5 μM nitrendipine, Examples 116-140, read-out: IMR 32% of Blockade @
[3] = IMR-32 cells, 5 μM nitrendipine

T1 sequence (Q00975 whole entry): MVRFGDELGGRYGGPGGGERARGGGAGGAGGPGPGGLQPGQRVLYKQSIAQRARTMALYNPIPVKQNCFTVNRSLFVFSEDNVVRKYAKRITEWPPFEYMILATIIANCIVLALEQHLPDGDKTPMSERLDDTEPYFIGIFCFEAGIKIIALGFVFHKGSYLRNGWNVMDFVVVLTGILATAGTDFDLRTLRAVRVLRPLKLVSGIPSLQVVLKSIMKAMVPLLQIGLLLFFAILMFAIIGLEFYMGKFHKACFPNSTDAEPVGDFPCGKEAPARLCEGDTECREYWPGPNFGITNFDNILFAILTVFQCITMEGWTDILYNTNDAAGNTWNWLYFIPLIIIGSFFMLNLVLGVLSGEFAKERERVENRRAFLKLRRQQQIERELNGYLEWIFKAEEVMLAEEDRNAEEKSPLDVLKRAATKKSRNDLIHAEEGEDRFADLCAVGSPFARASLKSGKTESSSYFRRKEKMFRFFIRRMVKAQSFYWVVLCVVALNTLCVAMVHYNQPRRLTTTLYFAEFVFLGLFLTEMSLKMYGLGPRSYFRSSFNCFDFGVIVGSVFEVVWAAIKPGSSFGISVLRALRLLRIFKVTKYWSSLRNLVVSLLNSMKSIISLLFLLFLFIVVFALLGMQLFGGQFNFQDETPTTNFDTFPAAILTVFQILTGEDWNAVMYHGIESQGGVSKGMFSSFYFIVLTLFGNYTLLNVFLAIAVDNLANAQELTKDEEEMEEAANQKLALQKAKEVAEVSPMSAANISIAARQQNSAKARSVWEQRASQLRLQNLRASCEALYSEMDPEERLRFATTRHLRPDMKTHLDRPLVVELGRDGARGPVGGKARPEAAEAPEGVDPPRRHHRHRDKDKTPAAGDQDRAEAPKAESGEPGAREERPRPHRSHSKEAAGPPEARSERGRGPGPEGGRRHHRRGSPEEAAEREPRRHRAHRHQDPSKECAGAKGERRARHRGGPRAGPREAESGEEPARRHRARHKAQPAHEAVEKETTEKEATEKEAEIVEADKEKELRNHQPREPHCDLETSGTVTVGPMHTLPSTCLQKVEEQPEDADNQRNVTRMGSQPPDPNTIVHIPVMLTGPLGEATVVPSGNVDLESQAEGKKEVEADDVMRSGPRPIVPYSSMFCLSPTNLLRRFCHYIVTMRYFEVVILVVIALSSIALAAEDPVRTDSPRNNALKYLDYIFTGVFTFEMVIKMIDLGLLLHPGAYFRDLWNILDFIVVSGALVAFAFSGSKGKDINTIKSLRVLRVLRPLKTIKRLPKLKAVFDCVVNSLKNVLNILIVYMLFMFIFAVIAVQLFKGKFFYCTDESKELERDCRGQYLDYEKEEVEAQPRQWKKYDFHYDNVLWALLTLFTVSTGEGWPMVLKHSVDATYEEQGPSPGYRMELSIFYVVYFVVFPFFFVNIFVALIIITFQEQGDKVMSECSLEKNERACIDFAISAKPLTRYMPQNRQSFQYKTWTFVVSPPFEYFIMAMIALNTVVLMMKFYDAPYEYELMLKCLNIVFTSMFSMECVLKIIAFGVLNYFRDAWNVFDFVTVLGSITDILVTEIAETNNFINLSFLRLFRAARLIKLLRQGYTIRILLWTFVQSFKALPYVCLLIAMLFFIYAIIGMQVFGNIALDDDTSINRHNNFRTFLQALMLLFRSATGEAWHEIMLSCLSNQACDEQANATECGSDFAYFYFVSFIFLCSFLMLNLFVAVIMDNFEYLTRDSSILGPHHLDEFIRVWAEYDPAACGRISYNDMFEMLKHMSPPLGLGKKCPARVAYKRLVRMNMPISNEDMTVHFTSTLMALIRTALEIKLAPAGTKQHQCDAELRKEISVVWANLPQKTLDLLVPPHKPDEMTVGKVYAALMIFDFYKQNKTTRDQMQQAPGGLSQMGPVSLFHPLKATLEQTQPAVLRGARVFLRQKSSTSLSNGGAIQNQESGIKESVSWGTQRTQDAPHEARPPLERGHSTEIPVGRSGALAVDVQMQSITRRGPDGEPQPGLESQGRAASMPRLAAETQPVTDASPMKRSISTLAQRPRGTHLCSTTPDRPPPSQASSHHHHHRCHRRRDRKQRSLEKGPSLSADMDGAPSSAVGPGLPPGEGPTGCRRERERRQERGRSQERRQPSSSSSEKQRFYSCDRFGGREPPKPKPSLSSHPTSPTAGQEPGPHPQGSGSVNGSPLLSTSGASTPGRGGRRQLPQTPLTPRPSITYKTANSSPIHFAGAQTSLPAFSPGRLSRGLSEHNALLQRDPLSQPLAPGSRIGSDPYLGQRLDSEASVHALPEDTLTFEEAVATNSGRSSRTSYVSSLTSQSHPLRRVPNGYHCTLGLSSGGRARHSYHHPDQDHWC
T1 sequence (P54284 whole entry partner): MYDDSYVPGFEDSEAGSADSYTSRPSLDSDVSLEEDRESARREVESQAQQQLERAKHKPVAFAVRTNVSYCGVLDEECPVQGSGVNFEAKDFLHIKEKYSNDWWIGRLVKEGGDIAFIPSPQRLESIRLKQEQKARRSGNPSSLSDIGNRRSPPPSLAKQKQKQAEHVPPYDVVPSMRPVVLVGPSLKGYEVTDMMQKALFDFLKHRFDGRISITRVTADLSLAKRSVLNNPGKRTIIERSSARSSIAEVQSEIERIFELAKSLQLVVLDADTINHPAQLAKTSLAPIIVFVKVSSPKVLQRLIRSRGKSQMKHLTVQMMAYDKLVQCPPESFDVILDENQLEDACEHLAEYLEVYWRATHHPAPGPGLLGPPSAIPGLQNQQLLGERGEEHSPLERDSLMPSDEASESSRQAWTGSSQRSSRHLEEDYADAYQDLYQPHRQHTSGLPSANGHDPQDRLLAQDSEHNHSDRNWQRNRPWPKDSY
T1 sequence (P54289 25-946 partner limits assumed): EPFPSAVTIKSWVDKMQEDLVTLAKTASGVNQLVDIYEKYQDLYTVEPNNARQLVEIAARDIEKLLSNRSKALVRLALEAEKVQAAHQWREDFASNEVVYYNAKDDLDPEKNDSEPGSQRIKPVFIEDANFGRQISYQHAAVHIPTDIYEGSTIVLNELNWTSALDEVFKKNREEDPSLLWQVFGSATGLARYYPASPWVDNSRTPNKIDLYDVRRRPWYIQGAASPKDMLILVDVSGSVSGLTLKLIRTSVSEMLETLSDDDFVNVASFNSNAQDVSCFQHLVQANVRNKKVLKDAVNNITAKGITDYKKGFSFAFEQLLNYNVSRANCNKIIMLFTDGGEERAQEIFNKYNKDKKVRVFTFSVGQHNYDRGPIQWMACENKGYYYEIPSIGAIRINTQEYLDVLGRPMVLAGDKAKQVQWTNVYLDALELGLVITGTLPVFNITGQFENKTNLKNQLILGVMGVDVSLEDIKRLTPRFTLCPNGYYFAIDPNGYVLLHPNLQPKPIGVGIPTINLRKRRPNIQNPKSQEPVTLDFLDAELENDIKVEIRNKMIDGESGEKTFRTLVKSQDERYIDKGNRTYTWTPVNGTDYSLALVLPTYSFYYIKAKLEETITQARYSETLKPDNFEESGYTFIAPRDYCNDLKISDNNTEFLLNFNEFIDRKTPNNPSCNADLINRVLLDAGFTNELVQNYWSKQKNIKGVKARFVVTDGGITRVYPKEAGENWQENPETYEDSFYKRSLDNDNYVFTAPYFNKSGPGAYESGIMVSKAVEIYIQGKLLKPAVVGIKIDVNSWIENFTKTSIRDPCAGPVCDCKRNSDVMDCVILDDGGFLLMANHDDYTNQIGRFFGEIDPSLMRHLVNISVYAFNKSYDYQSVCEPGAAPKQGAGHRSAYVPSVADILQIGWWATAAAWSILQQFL
T1 sequence (P54289 947-1103 partner limits assumed): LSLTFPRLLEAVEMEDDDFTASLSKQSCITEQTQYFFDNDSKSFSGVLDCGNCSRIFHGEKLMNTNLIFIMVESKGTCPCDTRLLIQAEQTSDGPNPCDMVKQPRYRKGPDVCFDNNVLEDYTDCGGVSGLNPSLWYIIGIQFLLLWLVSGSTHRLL

Row | SMILES | pIC50 [1] | pIC50 [2] | also measured
1 | CC(C)C[C@@H](C(=O)N[C@@H](Cc1ccc(OCc2ccccc2)cc1)C(=O)NC(C)(C)C)N(C)Cc1ccncc1 (relative stereo) [Example 83, [S-(R*,R*)]-4-Methyl-2-(methyl-pyridin4-ylmethyl-amino)-pentanoic acid [2-(4-benzyloxy-phenyl)-1-tert-butylcarbamoyl-ethyl]-amide] | 5.89 |  | 
2 | CC(C)CC(C(=O)NC(Cc1ccc(OCc2ccccc2)cc1)C(=O)NCCN1CCOCC1)N1CCOCC1 (stereo not drawn) [Example 119, [S-(R*,R*)]-4-Methyl-2-morpholin-4-yl-pentanoic acid [2-(4-benzyloxy-phenyl)-1-(2-morpholin-4-yl-ethylcarbamoyl)-ethyl]-amide] |  | 4.74 | 
3 | CC(C)C[C@@H](C(=O)N[C@@H](Cc1ccc(OCc2ccccc2)cc1)C(=O)NC(C)(C)C)N(C)C(C)CO (mixture of isomers) [Example 88, [S-[R*,R*,(RS)]]-2-[(2-Hydroxy-1-methyl-ethyl)-methyl-amino]-4-methyl-pentanoic acid [2-(4-benzyloxy-phenyl)-1-tert-butylcarbamoyl-ethyl]-amide] |  |  | IMR 32 % of Blockade @ 1 μM [3]: 30%
4 | CC(C)C[C@@H](C(=O)N[C@@H](Cc1ccc(OCc2ccccc2)cc1)C(=O)N1CCCCC1)N(C)CC1CCCCC1 (relative stereo) [Example 26, [S-(R*,R*)]-2-(Cyclohexylmethyl-methyl-amino)-4-methyl-pentanoic acid [^2-(^4-benzyloxy-phenyl)-1-(piperidine-1-carbonyl)-ethyl]-amide] | 6.22 |  | 
5 | CC(C)C[C@@H](C(=O)N[C@@H](Cc1ccc(OCc2ccccc2)cc1)C(=O)NCCc1ccccn1)N(C)C (relative stereo) [Example 133, [S-(R*,R*)]-2-Dimethylamino-4-methyl-pentanoic acid [2-(4-benzyloxy-phenyl)-1-(2-(2-aminoethyl)pyridinecarbamoyl)-ethyl]-amide] |  |  | pIC50 (read-out: IMR 32% of Blockade @): 5.23
6 | CC(C)C[C@@H](C(=O)N[C@@H](Cc1ccc(OCc2ccccc2)cc1)C(=O)N1CCN(C)CC1)N(C)Cc1ccc(C(C)(C)C)cc1 (relative stereo) [Example 18, [S-(R*,R*)]-2-[(4-tert-Butyl-benzyl)-methyl-amino]-4-methyl-pentanoic acid [1-(4-benzyloxy-benzyl)-2-(4-methyl-piperazin-1-yl)-2-oxo-ethyl]-amide] |  |  | IMR 32 % of Blockade @ 1 μM [3]: 52%; IMR 32 % of Blockade @ 10 μM (10 μM, IMR-32 cells, 5 μM nitrendipine): 95%

The next lines start with results.

Row | pIC50 [1] | pIC50 [2] | SMILES | also measured
7 |  | 5.20 | CC(C)C[C@H](NC1CCOCC1)C(=O)N[C@@H](Cc1ccc(OCc2ccccc2)cc1)C(=O)NCCCn1ccnc1 (relative stereo) [Example 129, [S-(R*,R*)]-4-Methyl-2-(tetrahydropyran-4-yl-amino)-pentanoic acid [2-(4-benzyloxy-phenyl)-1-(3-imidazol-1-yl-propylcarbamoyl)-ethyl]-amide] | 
8 |  | 5.22 | CC(C)C[C@@H](C(=O)N[C@@H](Cc1ccc(OCc2ccccc2)cc1)C(=O)NCCc1ccccn1)N1CCOCC1 (relative stereo) [Example 120, [S-(R*,R*)]-4-Methyl-2-morpholin-4yl-pentanoic acid [2-(4-benzyloxy-phenyl)-1-(2-pyridin-2-yl-ethylcarbamoyl)-ethyl]-amide] | 
9 | 6.70 |  | CC(C)CCN(C)[C@@H](CC(C)C)C(=O)NC(Cc1ccc(OCc2ccccc2)cc1)C(=O)NCCNCc1ccccc1 (stereo in doubt) [Example 60, [S(R*,R*)]-4-Methyl-2-[methyl-(3-methyl-butyl)-amino]-pentanoic acid [1-(2-benzylamino-ethylcarbamoyl)-2-(4-benzyloxy-phenyl)-ethyl]-amide] | 
10 | 6.52 |  | CC(C)C[C@H](NCC1CCCCC1)C(=O)N[C@@H](Cc1ccc(OCc2ccccc2)cc1)C(=O)OC(C)(C)C (relative stereo) [Example 91, [S-(R*,R*)]-3-(4Benzyloxy-phenyl)-2-[2-(cyclohexylmethyl-amino)-4-methyl-pentanoylamino]-propionic acid tert-butyl ester] | 
